We go through five compounds from ChEMBL document CHEMBL1201862, “PubChem BioAssay data set” (2004).

Each structure is given as a SMILES string.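 Where inhibition never reached the appropriate level, the endpoint shown equals the highest concentration tested. Otherwise, values were interpolated linearly from a five-concentration, 48-hour dose response in 96-well plates. At the GI50, growth is halved.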 Active and inactive are the calls of the source. Cut-off read from the data, not from the text of the source: active = GI50 up to about 1.1 µM and inactive = higher.

Among the test systems are M14; UACC-257; SNB-75; NCI-H23; SK-OV-3; OVCAR-8; HCT-15; DLD-1; NCI-H226; A498; HOP-62; SF-295; OVCAR-5; HCT-116; HT-29; NCI-H460; UACC-62.
What all share (assay): NCI-60 cell line screen, 48 h

For `O=C(O)CSc1nnc(COc2ccccc2)n1-c1ccccc1`, the GI50 in the assay on M14, in the assay on UACC-257, in the assay with SNB-75, in the assay on NCI-H23, with SK-OV-3 and with OVCAR-8 was > 100 µM (inactive) throughout. For the same compound, the GI50 with HCT-15 was over 100 µM; with DLD-1, > 100 µM (inactive); in the assay with NCI-H226, > 100 µM (inactive); with A498 it was > 100 µM (inactive); in the assay with HOP-62 it was > 100 µM (inactive); in the assay with SF-295, > 100 µM (inactive). For the same compound, the GI50 with OVCAR-5, with HCT-116, in the assay with HT-29 and in the assay with NCI-H460 was > 100 µM (inactive) each time.

Regarding `CN(C)/C=N/c1nc2ncn(CCOC(=O)c3ccccc3)c2c(=O)[nH]1`, the GI50 is > 100 µM (inactive) with M14; > 100 µM (inactive) with UACC-257; > 100 µM (inactive) with SNB-75; > 100 µM (inactive) in the assay on SK-OV-3; > 100 µM (inactive) in the assay with OVCAR-8; over 100 µM with HCT-15. Moreover, the GI50 in the assay with DLD-1, in the assay with NCI-H226, with A498, with HOP-62, with SF-295 and in the assay with OVCAR-5 was > 100 µM (inactive) throughout. Further, the GI50 in the assay with HCT-116, in the assay on UACC-62, with HT-29 and in the assay on NCI-H460 was > 100 µM (inactive) in each case.

`CN1Cc2c(nc(-c3ccc(Br)cc3)c[n+]2[O-])N(C)C1`: the GI50 in the assay with M14, in the assay on UACC-257, with SNB-75, in the assay with NCI-H23, with SK-OV-3 and in the assay with OVCAR-8 was > 100 µM (inactive) in each case. Moreover, the GI50 with DLD-1, in the assay on NCI-H226, in the assay with A498, in the assay on HOP-62, in the assay with SF-295 and with OVCAR-5 was > 100 µM (inactive) in each case. For the same compound, the GI50 in the assay on HCT-116, in the assay with HT-29 and in the assay with NCI-H460 was > 100 µM (inactive) each time.

Consider `CC1C=C(CCCCCCCCCCCC[C@@H](O)[C@@H]2CC[C@@H]([C@@H]3CC[C@@H](C(O)CCCCCCCCCCCCC4=C[C@H](C)OC4=O)O3)O2)C(=O)O1` (stereo partly drawn), for which the GI50 in the assay with M14 is > 100 µM (inactive); in the assay on UACC-257, 0.387 µM (active); with SNB-75, > 80 µM (inactive); in the assay with NCI-H23, < 0.0422 µM (active); in the assay on SK-OV-3, > 100 µM (inactive); with OVCAR-8 it was 25.5 µM (inactive). Further, the GI50 in the assay on HCT-15 is 57.5 µM; in the assay with DLD-1, > 100 µM (inactive); in the assay with NCI-H226, 31 µM (inactive); in the assay on A498, 75.7 µM (inactive); with HOP-62, > 100 µM (inactive); in the assay on SF-295, 0.078 µM (active). The GI50 in the assay on OVCAR-5 is > 100 µM (inactive); in the assay on UACC-62, > 100 µM (inactive); in the assay with HT-29, > 79.1 µM (inactive); in the assay with NCI-H460, 0.881 µM (active).

Turning to `CC1CC[C@@]23CCC4(C)[C@@](C=CC5[C@@]6(C)CCC(=O)C(C)(C)C6CC[C@]54C)(OC2=O)[C@@H]3[C@H]1C` (stereo partly drawn), the GI50 with M14 is 21.7 µM (inactive); with UACC-257, 6.59 µM (inactive); in the assay on SNB-75 it was 23.6 µM (inactive); in the assay on NCI-H23, 11.9 µM (inactive); with SK-OV-3 it was 27.9 µM (inactive); in the assay with OVCAR-8, 18.6 µM (inactive). Besides, the GI50 was 19.3 µM (inactive) in the assay with DLD-1; 19.8 µM (inactive) in the assay with NCI-H226; 20.6 µM (inactive) with A498; 16.9 µM (inactive) in the assay with HOP-62; 18.8 µM (inactive) with SF-295; 6.68 µM (inactive) in the assay on HCT-116. Also, the GI50 is 12.2 µM (inactive) in the assay with UACC-62, 16.4 µM (inactive) in the assay with HT-29 and 13.2 µM (inactive) with NCI-H460.
